Consider 1 compound from ChEMBL document CHEMBL4507319 (2021).

Assay [1] concerns the target Leucine-rich repeat serine/threonine-protein kinase 2 (Homo sapiens) (UniProt Q5S007). Kind of assay: LRRK2(h) Eurofins kinase panel. The conditions noted are these: Compound concentration 1.0 uM.
The target in assay [2] is Testis-specific serine/threonine-protein kinase 4 (Homo sapiens) (UniProt Q6SA08). Kind of assay: TSSK4(h) Eurofins kinase panel. The conditions noted are these: Compound concentration 1.0 uM.
The target in assay [3] is T1, Mitogen-activated protein kinase 12 (Homo sapiens) (UniProt P53778).
T1 sequence (whole entry): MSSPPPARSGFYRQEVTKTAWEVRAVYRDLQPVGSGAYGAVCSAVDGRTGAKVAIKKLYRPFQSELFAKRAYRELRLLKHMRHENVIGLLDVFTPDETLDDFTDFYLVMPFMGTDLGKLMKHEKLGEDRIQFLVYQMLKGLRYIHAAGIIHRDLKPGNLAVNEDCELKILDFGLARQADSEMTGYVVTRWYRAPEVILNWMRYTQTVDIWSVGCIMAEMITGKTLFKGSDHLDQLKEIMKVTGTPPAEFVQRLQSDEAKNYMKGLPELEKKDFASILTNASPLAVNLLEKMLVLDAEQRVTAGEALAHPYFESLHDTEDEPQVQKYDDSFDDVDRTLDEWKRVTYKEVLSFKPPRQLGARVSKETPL
Put plainly: SAPK3(h) Eurofins kinase panel. The conditions noted are these: Compound concentration 1.0 uM.

In assay [4] the target is T2, Serine/threonine-protein kinase tousled-like 1 (Homo sapiens) (UniProt Q9UKI8).
T2 sequence (whole entry): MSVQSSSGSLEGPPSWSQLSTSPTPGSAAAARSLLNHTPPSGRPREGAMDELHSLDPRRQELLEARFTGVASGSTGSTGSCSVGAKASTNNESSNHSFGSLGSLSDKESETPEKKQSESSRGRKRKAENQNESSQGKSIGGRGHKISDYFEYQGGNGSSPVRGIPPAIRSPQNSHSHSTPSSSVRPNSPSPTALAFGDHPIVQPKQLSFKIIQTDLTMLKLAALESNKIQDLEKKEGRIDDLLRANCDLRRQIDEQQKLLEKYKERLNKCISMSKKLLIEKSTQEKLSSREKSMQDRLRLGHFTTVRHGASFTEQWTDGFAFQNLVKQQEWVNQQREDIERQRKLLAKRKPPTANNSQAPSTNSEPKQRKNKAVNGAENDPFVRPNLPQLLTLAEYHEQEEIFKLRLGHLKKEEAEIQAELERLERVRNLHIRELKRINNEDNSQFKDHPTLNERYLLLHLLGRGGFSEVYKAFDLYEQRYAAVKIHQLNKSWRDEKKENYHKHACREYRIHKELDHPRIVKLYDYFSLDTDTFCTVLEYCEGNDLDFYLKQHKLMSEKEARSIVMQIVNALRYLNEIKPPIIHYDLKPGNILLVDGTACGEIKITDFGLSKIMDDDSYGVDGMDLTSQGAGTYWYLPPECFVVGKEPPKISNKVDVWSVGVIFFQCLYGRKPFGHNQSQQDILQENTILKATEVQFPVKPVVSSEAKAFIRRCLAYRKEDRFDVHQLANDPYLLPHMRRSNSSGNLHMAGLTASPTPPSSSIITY
Put plainly: TLK1(h) Eurofins kinase panel. The conditions noted are these: Compound concentration 1.0 uM.

Assay [5] has as its target CDK6/cyclin D3 (Homo sapiens) (UniProt P30281+Q00534). Put plainly: CDK6/cyclinD3(h) Eurofins kinase panel. The conditions noted are these: Compound concentration 1.0 uM. In kind it is protein-complex assay.
Assay [6] addresses Calcium/calmodulin-dependent protein kinase type II subunit alpha (Homo sapiens) (UniProt Q9UQM7). Kind of assay: CaMKIIalpha(h) Eurofins kinase panel. The conditions noted are these: Compound concentration 1.0 uM.
For assay [7], the target named is Mitogen-activated protein kinase kinase kinase 9 (Homo sapiens) (UniProt P80192). Kind of assay: MLK1(h) Eurofins kinase panel. The conditions noted are these: Compound concentration 1.0 uM.
For assay [8], the target named is Protein kinase C zeta type (Homo sapiens) (UniProt Q05513). Kind of assay: PKCzeta(h) Eurofins kinase panel. The conditions noted are these: Compound concentration 1.0 uM.
In assay [9] the target is BDNF/NT-3 growth factors receptor (Homo sapiens) (UniProt Q16620). Put plainly: TrkB(h) Eurofins kinase panel. The conditions noted are these: Compound concentration 1.0 uM.
Chain of BDNF/NT-3 growth factors receptor (Homo sapiens) (Q16620 32-822 limits assumed): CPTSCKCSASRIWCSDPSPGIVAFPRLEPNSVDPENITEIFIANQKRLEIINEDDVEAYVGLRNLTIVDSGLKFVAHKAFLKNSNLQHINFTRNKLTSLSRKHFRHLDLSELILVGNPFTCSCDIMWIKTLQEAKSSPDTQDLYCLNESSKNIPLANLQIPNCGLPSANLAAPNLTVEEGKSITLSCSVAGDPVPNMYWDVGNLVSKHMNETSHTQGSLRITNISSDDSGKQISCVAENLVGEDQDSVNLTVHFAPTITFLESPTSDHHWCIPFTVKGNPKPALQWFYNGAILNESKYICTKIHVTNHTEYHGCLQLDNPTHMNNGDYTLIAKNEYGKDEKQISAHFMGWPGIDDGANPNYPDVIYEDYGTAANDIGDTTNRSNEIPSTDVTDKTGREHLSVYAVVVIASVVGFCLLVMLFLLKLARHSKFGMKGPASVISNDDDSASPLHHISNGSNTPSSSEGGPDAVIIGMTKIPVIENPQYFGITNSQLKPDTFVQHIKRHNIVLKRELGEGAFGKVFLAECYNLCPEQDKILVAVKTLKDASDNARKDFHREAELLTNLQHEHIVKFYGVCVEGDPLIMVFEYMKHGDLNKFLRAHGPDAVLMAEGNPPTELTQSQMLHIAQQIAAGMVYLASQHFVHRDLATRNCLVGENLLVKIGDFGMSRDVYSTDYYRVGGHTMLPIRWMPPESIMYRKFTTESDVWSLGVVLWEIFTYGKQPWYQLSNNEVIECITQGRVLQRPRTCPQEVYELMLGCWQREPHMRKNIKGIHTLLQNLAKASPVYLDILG
The next assay has as its system VCaP. Kind of assay: VCaP cell line Proliferation assay. In kind it is functional, Homo sapiens. The conditions noted are these: time 6 day.
The target in assay [10] is T3, Tyrosine-protein kinase TXK (Homo sapiens) (UniProt P42681).
T3 sequence (whole entry): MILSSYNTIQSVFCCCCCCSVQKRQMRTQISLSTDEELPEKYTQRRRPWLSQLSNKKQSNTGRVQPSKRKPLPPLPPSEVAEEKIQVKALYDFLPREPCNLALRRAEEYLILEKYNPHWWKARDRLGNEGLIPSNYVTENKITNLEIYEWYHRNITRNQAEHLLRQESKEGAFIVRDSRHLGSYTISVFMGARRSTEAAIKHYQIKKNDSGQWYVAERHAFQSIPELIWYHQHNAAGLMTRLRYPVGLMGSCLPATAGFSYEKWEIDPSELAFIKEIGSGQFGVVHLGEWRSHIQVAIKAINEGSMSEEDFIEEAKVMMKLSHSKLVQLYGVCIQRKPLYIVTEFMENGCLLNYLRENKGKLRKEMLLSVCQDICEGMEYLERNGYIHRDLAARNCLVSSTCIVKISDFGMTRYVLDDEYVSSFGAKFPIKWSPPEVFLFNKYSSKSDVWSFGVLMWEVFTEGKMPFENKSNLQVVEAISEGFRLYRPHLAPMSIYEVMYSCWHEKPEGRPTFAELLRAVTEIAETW
Kind of assay: Txk(h) Eurofins kinase panel. The conditions noted are these: Compound concentration 1.0 uM.

The target in assay [11] is CDK18/Cyclin Y (Homo sapiens) (UniProt Q07002+Q8ND76). Kind of assay: CDK18/cyclinY(h) Eurofins kinase panel. Type of assay: protein-complex assay. The conditions noted are these: Compound concentration 1.0 uM.
The target in assay [12] is Leukocyte tyrosine kinase receptor (Homo sapiens) (UniProt P29376). Kind of assay: LTK(h) Eurofins kinase panel. The conditions noted are these: Compound concentration 1.0 uM.
Chain of Leukocyte tyrosine kinase receptor (Homo sapiens) (P29376 whole entry): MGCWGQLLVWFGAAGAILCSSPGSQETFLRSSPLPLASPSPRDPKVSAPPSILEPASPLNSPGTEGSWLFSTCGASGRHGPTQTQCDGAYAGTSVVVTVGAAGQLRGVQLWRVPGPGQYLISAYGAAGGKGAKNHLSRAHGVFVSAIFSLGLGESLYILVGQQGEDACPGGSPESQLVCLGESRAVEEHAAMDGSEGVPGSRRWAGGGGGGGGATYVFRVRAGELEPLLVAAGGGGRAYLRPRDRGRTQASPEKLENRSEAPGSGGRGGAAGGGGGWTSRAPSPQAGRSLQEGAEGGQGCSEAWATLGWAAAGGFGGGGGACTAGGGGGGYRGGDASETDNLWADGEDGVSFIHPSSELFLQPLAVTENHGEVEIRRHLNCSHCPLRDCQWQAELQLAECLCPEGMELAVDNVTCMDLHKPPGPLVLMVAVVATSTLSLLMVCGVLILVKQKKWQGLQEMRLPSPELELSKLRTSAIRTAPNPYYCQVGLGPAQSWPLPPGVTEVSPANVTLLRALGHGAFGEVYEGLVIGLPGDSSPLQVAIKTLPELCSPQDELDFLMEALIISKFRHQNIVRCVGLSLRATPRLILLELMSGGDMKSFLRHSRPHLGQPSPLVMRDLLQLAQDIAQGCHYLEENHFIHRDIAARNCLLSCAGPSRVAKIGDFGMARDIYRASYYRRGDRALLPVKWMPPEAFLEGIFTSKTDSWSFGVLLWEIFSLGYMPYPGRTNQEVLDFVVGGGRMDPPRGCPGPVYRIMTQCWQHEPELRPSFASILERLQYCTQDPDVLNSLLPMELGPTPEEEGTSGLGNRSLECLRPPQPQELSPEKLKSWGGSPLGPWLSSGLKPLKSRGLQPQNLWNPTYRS
The subject of another assay is BXPC-3. Kind of assay: BxPC3 cell line Proliferation assay. Type of assay: functional, Homo sapiens. The conditions noted are these: time 3 day.
Assay [13] concerns the target Protein kinase C alpha type (Homo sapiens) (UniProt P17252). Kind of assay: PKCalpha (h) Eurofins kinase panel. The conditions noted are these: Compound concentration 1.0 uM.
The target of assay [14] is Non-receptor tyrosine-protein kinase TYK2 (Homo sapiens) (UniProt P29597). Kind of assay: TYK2(h) Eurofins kinase panel. The conditions noted are these: Compound concentration 1.0 uM.

Chain of Leucine-rich repeat serine/threonine-protein kinase 2 (Homo sapiens) (Q5S007 whole entry): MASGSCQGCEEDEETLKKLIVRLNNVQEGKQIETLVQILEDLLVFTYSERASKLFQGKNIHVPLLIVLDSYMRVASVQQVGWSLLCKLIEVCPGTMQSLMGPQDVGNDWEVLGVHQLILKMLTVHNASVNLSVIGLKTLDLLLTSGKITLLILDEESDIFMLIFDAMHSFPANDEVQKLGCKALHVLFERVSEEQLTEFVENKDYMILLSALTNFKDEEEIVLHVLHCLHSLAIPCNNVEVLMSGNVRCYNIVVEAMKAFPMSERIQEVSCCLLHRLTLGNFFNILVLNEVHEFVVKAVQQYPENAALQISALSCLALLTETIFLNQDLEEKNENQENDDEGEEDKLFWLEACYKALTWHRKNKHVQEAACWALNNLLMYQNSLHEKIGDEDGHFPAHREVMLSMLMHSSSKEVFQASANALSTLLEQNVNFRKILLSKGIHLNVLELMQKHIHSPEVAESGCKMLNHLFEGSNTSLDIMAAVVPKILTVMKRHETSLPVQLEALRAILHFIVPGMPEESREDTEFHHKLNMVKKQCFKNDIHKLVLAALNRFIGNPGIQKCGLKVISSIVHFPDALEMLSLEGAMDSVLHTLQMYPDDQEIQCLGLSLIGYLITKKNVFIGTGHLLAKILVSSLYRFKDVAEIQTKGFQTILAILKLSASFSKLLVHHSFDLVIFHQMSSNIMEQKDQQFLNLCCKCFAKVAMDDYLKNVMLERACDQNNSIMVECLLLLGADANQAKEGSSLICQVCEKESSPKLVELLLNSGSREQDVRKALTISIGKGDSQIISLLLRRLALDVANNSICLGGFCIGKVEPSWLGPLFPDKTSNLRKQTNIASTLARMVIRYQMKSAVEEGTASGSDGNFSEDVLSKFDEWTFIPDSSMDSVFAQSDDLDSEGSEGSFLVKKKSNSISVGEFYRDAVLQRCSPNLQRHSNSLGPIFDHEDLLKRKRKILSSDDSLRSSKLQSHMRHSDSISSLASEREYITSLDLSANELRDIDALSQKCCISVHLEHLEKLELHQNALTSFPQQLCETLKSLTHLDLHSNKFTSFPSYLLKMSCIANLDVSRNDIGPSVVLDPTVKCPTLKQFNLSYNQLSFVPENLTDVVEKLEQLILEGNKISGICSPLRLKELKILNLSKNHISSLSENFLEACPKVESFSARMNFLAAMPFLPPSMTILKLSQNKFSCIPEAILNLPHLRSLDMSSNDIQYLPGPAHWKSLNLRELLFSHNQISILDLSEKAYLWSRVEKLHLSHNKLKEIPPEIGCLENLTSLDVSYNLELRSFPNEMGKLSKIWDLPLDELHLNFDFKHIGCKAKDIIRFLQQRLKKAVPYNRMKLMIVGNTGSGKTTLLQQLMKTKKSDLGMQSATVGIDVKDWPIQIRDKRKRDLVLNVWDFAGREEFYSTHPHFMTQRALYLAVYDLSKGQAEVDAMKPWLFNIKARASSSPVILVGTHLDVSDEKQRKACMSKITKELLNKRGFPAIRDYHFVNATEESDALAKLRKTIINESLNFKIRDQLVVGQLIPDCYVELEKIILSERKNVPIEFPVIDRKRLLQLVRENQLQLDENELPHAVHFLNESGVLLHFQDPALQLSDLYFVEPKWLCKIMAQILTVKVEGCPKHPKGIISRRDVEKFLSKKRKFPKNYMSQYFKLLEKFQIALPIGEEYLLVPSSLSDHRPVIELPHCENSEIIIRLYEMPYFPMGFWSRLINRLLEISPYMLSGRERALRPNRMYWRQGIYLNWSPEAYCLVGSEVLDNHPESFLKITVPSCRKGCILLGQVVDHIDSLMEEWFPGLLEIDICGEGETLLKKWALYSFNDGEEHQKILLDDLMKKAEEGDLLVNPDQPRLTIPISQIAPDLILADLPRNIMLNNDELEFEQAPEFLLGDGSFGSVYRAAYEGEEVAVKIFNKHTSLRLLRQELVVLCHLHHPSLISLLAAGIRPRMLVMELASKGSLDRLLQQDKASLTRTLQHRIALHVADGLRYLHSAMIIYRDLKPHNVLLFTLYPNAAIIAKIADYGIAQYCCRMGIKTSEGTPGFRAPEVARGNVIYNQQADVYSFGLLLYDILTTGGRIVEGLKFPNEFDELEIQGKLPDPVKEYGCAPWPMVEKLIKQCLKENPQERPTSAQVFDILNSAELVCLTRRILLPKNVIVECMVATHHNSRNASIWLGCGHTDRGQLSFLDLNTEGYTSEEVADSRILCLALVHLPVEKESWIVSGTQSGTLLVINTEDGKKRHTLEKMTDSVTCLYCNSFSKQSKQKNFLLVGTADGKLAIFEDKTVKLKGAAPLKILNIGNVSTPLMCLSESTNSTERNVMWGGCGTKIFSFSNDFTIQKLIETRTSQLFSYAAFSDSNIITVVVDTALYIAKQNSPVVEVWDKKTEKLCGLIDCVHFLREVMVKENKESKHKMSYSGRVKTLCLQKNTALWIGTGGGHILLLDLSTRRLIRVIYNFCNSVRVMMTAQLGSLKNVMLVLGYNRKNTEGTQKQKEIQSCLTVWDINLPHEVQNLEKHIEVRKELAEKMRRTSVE

For the compound `CCc1ccccc1C(=O)Nc1n[nH]c2c(C)c(F)c(C3C(C#N)=C(C)N(C)C(C)=C3C#N)cc12` [BAY-3827], the % residual kinase activity in assay [1] is 95%; in assay [2] it was 103%; in assay [3] it was 106%; in assay [4] it was 103%; in assay [5], 110%; in assay [6], 81%. Also, the % residual kinase activity in assay [7] was 93%; in [8] it was 99%; in [9], 103%; in [10], 111%; in [11], 106%; in [12], 100%. Also, the % residual kinase activity in [13] was 44%; in assay [14] it was 87%. For the same compound, the “Cell Proliferation IC50” value with VCaP was 1.71 µM; in the assay on BXPC-3, 11.4 µM.
